Columns and labels:
Test in all cases: Kinobeads competition binding, HeLa Placenta lysate mix
Design in all cases: endogenous in cells
Conditions in all cases: 10 μM free compound
[1] = molecular target: LYN (Homo sapiens, UniProt P07948)
In short: (§1)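 Competition pulldown: free compound at 10 μM competes with an immobilized-compound affinity matrix for lysate proteins. Captured proteins undergo SDS-PAGE and in-gel tryptic digestion, then iTRAQ-labeled LC-MS/MS quantification relative to a DMSO-treated aliquot.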

[2] = molecular target: MAP2K1 (Homo sapiens, UniProt Q02750)
Sequence of MAP2K1 (Q02750 whole entry): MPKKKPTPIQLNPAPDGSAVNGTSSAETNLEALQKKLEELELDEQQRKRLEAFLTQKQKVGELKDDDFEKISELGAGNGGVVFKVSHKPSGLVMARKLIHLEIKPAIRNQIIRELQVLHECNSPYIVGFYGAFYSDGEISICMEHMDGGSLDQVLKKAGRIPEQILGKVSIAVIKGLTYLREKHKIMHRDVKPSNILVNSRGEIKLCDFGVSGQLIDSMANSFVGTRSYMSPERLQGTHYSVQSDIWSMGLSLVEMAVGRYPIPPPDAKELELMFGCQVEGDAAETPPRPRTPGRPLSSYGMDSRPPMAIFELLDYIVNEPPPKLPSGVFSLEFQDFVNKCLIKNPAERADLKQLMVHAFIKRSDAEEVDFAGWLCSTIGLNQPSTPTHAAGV
In short: as §1

[3] = molecular target: T1, PIP5K2C (Homo sapiens, UniProt Q8TBX8)
T1 sequence (Q8TBX8 1-421): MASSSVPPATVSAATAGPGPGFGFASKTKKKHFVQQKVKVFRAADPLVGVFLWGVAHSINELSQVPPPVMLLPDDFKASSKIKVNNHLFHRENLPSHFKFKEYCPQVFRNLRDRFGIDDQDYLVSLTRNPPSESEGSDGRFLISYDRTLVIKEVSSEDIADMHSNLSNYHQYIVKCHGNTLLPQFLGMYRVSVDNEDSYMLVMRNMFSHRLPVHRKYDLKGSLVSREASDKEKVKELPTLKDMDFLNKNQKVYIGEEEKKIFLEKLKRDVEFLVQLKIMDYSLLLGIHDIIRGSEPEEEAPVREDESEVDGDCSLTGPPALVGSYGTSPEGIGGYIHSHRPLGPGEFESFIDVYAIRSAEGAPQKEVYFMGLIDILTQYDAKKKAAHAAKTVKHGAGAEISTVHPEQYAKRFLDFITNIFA
In short: as §1

[4] = molecular target: MAP3K4 (Homo sapiens, UniProt Q9Y6R4)
Sequence of MAP3K4 (Q9Y6R4 whole entry): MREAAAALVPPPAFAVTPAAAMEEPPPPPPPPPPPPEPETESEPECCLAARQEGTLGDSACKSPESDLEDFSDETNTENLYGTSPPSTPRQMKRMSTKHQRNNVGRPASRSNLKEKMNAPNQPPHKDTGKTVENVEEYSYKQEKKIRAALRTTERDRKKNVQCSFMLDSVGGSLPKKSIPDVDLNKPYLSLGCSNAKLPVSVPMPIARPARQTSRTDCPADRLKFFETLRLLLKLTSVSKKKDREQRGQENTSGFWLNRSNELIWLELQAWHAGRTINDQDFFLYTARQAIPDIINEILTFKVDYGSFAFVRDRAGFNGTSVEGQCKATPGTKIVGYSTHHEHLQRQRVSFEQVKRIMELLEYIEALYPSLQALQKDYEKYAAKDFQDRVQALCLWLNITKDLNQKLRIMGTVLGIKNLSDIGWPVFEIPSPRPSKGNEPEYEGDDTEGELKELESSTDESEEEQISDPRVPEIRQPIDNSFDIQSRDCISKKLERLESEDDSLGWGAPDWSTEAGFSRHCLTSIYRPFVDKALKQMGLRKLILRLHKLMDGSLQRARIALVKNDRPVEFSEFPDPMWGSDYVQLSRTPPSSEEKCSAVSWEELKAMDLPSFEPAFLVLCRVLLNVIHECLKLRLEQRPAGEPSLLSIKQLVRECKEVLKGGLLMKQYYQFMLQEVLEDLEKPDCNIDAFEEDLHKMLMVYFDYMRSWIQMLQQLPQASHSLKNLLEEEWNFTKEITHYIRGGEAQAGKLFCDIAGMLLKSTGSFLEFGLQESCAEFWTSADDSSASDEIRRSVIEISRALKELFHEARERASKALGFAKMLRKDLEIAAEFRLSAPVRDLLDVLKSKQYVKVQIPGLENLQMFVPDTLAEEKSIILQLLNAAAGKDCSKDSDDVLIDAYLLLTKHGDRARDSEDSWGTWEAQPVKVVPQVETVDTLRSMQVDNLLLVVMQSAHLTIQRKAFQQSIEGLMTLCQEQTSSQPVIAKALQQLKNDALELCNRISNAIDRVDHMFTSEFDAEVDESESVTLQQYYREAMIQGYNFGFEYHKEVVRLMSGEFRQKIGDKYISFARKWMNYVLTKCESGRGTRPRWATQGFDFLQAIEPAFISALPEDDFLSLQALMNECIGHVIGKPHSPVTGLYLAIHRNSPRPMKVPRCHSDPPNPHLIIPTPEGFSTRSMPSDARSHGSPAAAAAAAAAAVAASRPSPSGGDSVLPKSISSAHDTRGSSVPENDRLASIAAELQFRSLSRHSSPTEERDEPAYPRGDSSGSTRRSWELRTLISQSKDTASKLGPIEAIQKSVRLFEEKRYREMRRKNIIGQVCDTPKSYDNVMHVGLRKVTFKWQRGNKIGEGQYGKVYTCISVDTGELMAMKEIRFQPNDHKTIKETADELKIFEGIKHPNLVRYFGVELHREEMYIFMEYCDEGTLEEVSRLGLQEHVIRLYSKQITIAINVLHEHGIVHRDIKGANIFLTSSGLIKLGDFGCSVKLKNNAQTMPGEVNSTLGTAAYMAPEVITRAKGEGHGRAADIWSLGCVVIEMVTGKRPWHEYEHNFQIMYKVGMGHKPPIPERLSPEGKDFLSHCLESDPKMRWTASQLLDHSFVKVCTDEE
In short: as §1

[5] = molecular target: BCR (Homo sapiens, UniProt P11274)
In short: as §1

[6] = molecular target: RIPK2 (Homo sapiens, UniProt O43353)
Sequence of RIPK2 (O43353 whole entry): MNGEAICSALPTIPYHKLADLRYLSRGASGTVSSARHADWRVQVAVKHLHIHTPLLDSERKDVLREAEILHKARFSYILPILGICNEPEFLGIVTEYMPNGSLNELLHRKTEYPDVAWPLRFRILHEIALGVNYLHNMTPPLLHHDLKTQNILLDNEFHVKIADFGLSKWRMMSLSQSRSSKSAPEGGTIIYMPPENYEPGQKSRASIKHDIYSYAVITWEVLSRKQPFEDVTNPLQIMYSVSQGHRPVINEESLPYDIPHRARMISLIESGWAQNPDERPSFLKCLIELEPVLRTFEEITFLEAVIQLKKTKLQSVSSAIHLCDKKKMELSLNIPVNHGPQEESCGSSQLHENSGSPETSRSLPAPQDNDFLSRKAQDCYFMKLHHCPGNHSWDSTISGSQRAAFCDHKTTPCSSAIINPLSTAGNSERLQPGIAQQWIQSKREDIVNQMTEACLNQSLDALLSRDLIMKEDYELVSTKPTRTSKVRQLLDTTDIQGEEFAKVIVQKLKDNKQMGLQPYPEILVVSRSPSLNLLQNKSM
In short: as §1

[7] = molecular target: T2, AurA (Homo sapiens, UniProt O14965)
T2 sequence (O14965 1-403): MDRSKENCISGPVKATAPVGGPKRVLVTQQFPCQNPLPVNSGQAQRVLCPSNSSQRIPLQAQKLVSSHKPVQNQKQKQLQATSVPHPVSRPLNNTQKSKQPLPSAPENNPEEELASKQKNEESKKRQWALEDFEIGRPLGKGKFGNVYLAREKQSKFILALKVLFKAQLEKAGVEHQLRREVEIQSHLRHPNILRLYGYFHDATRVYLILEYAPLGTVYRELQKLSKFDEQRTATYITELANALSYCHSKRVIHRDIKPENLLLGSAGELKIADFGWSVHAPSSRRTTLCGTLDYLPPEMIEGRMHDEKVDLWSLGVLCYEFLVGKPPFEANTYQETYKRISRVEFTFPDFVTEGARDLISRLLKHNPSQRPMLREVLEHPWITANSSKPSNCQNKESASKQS
In short: as §1

[8] = molecular target: GSK3B (Homo sapiens, UniProt P49841)
Sequence of GSK3B (P49841 whole entry): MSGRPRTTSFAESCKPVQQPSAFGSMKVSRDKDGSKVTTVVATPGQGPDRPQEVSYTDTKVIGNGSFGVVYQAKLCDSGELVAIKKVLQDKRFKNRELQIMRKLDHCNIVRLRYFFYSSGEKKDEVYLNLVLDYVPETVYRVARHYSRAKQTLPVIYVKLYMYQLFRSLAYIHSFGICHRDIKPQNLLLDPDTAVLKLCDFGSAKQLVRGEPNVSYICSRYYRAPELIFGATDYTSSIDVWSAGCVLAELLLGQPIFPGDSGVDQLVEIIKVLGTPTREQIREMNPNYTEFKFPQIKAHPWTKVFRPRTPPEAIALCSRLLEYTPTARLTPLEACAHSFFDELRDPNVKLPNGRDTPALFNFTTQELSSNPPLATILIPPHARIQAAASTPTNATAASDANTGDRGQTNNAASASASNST
In short: as §1

[9] = molecular target: CK2a1 (Homo sapiens, UniProt P68400)
Sequence of CK2a1 (P68400 whole entry): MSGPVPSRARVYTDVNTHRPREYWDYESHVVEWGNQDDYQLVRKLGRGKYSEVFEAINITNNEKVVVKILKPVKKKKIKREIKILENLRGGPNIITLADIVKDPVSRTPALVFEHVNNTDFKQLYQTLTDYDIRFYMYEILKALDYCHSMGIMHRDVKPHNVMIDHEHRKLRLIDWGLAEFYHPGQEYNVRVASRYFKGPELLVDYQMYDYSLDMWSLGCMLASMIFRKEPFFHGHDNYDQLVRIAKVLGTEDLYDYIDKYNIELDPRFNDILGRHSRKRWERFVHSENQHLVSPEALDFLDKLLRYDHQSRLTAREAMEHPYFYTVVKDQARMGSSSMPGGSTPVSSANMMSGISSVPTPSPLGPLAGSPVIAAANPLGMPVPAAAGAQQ
In short: as §1

[10] = molecular target: T3, NEK9 (Homo sapiens, UniProt Q8TD19)
T3 sequence (Q8TD19 1-979): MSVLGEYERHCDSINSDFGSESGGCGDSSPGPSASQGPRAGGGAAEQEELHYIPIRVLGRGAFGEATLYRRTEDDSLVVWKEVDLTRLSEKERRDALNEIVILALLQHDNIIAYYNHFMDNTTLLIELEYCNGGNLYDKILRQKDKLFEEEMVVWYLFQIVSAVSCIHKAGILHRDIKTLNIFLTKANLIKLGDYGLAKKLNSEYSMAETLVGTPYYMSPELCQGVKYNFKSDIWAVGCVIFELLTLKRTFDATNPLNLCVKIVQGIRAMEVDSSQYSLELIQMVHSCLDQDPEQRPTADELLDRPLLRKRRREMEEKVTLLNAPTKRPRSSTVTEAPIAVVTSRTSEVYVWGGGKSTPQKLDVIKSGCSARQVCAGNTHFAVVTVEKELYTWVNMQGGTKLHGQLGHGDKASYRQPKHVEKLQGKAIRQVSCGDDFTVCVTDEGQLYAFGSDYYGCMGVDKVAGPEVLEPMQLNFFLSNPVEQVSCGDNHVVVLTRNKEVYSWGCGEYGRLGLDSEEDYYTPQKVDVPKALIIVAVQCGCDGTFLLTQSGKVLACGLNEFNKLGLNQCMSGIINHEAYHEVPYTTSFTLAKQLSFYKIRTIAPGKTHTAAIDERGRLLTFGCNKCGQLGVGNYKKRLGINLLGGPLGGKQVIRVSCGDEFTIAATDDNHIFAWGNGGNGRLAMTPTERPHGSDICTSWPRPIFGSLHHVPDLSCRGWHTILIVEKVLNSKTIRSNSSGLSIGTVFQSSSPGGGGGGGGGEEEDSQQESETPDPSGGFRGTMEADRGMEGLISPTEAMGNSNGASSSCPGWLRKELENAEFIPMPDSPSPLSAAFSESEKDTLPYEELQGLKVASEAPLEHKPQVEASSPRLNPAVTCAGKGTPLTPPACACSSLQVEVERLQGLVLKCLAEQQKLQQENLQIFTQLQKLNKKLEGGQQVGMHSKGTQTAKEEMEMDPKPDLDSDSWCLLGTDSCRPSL
In short: as §1

[11] = molecular target: CDC2 (Homo sapiens, UniProt P06493)
Sequence of CDC2 (P06493 whole entry): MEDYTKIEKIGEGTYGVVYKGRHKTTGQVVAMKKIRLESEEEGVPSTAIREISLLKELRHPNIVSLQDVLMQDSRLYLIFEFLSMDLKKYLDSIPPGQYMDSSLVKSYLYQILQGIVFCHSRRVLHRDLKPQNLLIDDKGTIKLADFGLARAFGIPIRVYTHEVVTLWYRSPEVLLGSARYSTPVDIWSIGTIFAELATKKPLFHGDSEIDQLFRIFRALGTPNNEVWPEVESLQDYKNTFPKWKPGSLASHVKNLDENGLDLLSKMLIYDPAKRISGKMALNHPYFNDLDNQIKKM
In short: as §1

[12] = molecular target: JAK1 (Homo sapiens, UniProt P23458)
Sequence of JAK1 (P23458 whole entry): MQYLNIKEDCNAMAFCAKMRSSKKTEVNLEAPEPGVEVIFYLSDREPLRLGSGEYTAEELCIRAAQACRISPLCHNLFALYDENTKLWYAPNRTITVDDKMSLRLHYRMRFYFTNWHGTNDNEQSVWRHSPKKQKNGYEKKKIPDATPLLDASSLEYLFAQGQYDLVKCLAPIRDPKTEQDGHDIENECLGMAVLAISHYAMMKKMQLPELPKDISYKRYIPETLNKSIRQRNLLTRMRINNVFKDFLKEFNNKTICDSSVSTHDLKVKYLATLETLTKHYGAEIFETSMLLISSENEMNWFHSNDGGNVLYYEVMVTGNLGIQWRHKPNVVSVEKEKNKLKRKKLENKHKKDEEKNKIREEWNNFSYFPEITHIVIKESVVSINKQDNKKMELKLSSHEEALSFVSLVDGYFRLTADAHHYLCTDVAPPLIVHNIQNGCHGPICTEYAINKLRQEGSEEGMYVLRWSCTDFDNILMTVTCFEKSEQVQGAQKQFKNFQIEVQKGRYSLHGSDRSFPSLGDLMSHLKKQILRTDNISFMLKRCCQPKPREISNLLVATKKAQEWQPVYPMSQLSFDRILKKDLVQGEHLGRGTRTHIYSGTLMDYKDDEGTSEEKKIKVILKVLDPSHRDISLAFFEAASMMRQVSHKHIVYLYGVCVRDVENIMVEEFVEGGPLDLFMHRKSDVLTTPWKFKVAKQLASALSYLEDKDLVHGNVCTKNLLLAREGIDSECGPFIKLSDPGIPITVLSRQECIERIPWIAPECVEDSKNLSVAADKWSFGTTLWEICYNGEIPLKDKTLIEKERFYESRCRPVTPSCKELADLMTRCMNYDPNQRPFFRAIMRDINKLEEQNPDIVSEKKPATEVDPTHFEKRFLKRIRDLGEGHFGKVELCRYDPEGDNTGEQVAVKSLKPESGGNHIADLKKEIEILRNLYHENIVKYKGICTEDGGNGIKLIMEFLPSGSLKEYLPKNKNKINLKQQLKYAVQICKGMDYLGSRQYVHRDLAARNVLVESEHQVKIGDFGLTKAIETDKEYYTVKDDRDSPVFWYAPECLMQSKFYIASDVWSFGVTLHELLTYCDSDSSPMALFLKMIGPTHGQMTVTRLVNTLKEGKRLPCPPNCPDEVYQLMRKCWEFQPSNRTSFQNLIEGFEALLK
In short: as §1

## CS(=O)(=O)Nc1ccccc1Nc1nc(Nc2cccc(OCCN)c2)ncc1Cl [CZC31326, N-(2-(2-(3-(2-aminoethoxy)phenylamino)-5-chloropyrimidin-4-ylamino)phenyl)methanesulfonamide]
[1]
  inhibition at 10 µM: 76.1%
[2]
  inhibition at 10 µM: 83.7%
[3]
  inhibition at 10 µM: 95.4%
[4]
  inhibition at 10 µM: 92.2%
[5]
  inhibition at 10 µM: 90.2%
[6]
  inhibition at 10 µM: 92.2%
[7]
  inhibition at 10 µM: 94%
[8]
  inhibition at 10 µM: 93.3%
[9]
  inhibition at 10 µM: 94.6%
[10]
  inhibition at 10 µM: 89%
[11]
  inhibition at 10 µM: 93.4%
[12]
  Competition %: 95%

— patent US20120270237A9, “METHODS FOR THE IDENTIFICATION OF KINASE INTERACTING MOLECULES AND FOR THE PURIFICATION OF KINASE PROTEINS” (Cellzone AG, priority 2009, published 2012)
